# From PMC4526861, “Inhibition of protein kinase C by isojacareubin suppresses hepatocellular carcinoma metastasis and induces apoptosis in vitro and in vivo” (Scientific Reports, 2015)
# Legend:
# [1] = molecular target: T1, PKCμ (Homo sapiens, UniProt Q15139); experiment: Cell-based pull-down assay, PKCμ; format: binding; details: HepG2 lysates
# T1 construct: Endogenous cPKC (PKCα) and nPKC (PKCδ, PKCε and PKCμ) in HepG2 lysates were pulled down; endogenous in cells; host or cells: HepG2
# T1 sequence (Q15139 1-912): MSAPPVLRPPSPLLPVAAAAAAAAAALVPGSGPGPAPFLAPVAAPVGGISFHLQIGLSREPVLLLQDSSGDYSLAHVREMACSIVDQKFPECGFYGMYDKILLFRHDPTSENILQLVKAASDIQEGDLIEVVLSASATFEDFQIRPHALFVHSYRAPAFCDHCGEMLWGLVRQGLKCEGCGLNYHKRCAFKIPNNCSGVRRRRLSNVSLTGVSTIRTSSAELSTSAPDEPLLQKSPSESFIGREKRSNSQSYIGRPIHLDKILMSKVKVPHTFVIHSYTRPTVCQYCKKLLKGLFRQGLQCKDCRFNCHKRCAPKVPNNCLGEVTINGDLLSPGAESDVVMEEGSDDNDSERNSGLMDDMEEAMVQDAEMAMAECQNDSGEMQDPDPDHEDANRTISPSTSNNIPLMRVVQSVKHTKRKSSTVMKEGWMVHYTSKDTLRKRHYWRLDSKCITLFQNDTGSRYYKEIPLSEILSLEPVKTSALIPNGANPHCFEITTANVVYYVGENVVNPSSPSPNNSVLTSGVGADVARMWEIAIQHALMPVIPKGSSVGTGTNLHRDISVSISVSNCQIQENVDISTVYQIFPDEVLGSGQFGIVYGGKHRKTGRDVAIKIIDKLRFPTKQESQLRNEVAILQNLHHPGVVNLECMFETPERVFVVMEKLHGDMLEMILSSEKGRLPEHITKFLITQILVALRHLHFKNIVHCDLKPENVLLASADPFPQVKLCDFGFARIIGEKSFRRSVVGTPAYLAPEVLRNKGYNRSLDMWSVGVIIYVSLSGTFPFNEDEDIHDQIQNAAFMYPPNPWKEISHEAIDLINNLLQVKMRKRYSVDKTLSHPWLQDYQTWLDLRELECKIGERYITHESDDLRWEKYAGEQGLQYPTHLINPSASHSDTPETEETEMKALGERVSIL
# Protocol: To identify whether ISJ and compound 7 target PKC in cells, we performed pull-down experiments using ISJ- and compound 7-coupled Sepharose beads with HepG2 cell lysates. Endogenous cPKC (PKCα) and nPKC (PKCδ, PKCε and PKCμ) in HepG2 lysates were pulled down by ISJ-coupled CNBr-activated Sepharose 4B beads (Fig. 5a).
# The control beads were prepared by incubating the beads with DMSO. Proteins (500 μg) from lysed HepG2 cells were mixed with either the control beads, compound 7-coupled beads, or ISJ-coupled beads (100 μL) in reaction buffer [50 mM Tris (pH 7.5), 5 mM EDTA, 150 mM NaCl, 1 mM DTT, 0.01% NP-40, 2 μg/mL BSA, 1 mM PMSF, 1% protease inhibitor mixture]. After incubation with gentle rocking overnight at 4 °C, the beads were washed 5 times with washing buffer [50 mM Tris (pH 7.5), 5 mM EDTA, 150 mM NaCl, 1 mM DTT, 0.01% NP-40, 1 mM PMSF], and binding was visualized by western blotting.
# [2] = tested on: HepG2 cells; experiment: Cell proliferation assay (CCK-8), HepG2; format: cell-based, human
# Protocol: The human HCC cell lines QGY-7703, SMMC-7721 and HepG2 and the liver cell line QSG-7701 were supplied by the Cell Resource Center, Institute of Life Sciences, Chinese Academy of Medical Science. QGY-7703, SMMC-7721 and QSG-7701 cells were cultured in 1640 medium (Gibco), and HepG2 cells were cultured in DMEM medium (Gibco) at 37 °C in moist air supplemented with 5% CO2. All media were supplemented with 10% fetal bovine serum (FBS) and 100 Units/mL of penicillin/streptomycin.
# The cell viability assay was performed as previously reported using a Cell Counting Kit-8 (CCK-8; Dojindo, Kumamoto, Japan)[33][34]. The relative cell viability was presented as % inhibition and calculated using the following formula: […]
# [3] = tested on: PKC; experiment: PKC activity assay (PepTag non-radioactive, HepG2 lysates); format: biochemical, human; details: 3 h
# Protocol: The activity of PKC in HepG2 cells was assessed 3 h after the addition of compound 7 or ISJ by measuring the phosphorylation of a PKC-specific target peptide. Compared to the basal control (in the absence of any compound), PKC activity was inhibited by compound 7 and ISJ.
# Figure 3 Effects of compound 7 and ISJ on PKC activity in HepG2 cells. The proteins from lysed HepG2 cells were prepared and measured for their ability to phosphorylate a PKC-specific peptide substrate (PLSRTLSVAAK) in a non-radioactive assay. (a) Lanes 1 and 2 show the negative (water only) and positive controls (with 20 ng purified PKC). Supernatants from HepG2 cells were subjected to the PKC activity assay in the absence (basal control, lane 3) or presence (lanes 4–7) of the compounds. Compound 7 (lanes 4 and 5) and ISJ (lanes 6 and 7) were added separately at 10 and 5 μM. (b) Quantification of (a); *P < 0.05 versus the basal control. Data are shown as the mean ± SD of three independent experiments.
# The PKC activity assay was carried out as previously reported, according to the instructions of the PepTag non-radioactive PKC assay kit (Promega)[60]. The bands were photographed using the Syngene GBOX-iCHEMI-XR system, and the phosphorylated bands were cut out for quantification measurement at 570 nm.
# [4] = Body weight in xenograft study; format: in vivo, BALB/c-nu nude mice; details: 5 mg/kg, tail vein, two weeks
# Protocol: HepG2 cells were harvested and resuspended in PBS. A total of 5 × 10^6 cells were subcutaneously injected into the right flank. Tumor volume was calculated using the following formula: V = (L × W^2)/2, where L is the length and W is the width of the tumor nodules measured with vernier calipers. Once the volume of the tumors reached 75–100 mm^3, the mice were randomly divided into three groups (n = 5). The mice were treated every other day for two weeks with tail vein injections of either vehicle (5% ethanol and 2.5% polyethylene glycol in saline), compound 7, or ISJ (5 mg/kg in the vehicle). Body weights were measured before each drug injection. After the 15th day, the mice were euthanized, and the tumors were isolated, weighed and photographed.
substance,measurement,setting,value
Isojacareubin [ISJ],pull-down of endogenous PKCμ by compound-coupled Sepharose 4B beads,[1],pulled down
same,Inhibitory Ratio (%) HepG2,[2]; 50 μM,91.54%
same,IC50,"[2]; mean ± SD, at least three independent experiments",2450 ± 230 nM
same,inhibition of PKC activity compared to the basal control,[3]; 5 μM,52.3%
same,inhibition of PKC activity compared to the basal control,[3]; 10 μM,77.7%
same,change in body weight compared to vehicle-treated controls,[4],no significant change
